# Test results as given in patent US5290698A, “Streptoverticillium ferm P-10489 which produces antitumor agent BE-13793C” (Banyu Pharmaceutical Co., Ltd., priority 1989, dated 1994).
# Legend:
# Solubility = format: physicochemical
# P388/V cells = test: In vitro antitumor assay, growth inhibition of vincristine-resistant P388/V cells; format: cell-based; details: Mus musculus, 37° C., 5% CO2, 72 hours, read-out: concentration (IC50) causing 50% inhibition on P388/V cell growth
# Protocol: (§1) In vitro activity tests were performed for evaluating the inhibitory activities of the antitumor substance BE-13793C on mouse tumor cells. In the in vitro antitumor assay using P388 tumor cells, the test substance was first dissolved in dimethyl sulfoxide and the obtained solution was serially diluted with a cell culture medium containing 20% of dimethyl sulfoxide (20% v/v DMSO-RPMI-1640 medium). Then, 2 μl of the dilution was added to 200 μl of a cell culture medium (10% v/v fetal calf serum-RPMI-1640 medium) containing 2×10^4 or 3×10^4 tumor cells. Next, each mixture was incubated at 37° C. under 5% CO2 for 72 hours. The viable cells were then counted with a Coulter counter. The result was compared with the control data. […] The concentration (IC50) of the antitumor substance BE-13793C causing 50% inhibition on P388/S tumor cell growth was 0.7 μM, while that on P388/V cell growth was 0.7 μM.
# (§2) The P388/S cells are commonly employed mouse leukemia cells while the P388/V cells are a strain of P388 leukemia cells which have acquired resistance to the anticancer agent vincristine.
# Ehrlich ascites cancer = test: Effect on Ehrlich ascites cancer transplanted in mice (survival); format: in vivo, mouse; details: once a day 1st to 10th day; for MST (mean survival time): female ICR mice, control 13.1 day; for MST % T/C ((treated MST/control MST) × 100): ≥125 = marked antitumor effect
# Excerpt: In this assay, 10^6 (lethal dose) tumor cells per mouse were intraperitoneally administered. Then the test substance was serially diluted and intraperitoneally administered.
# ^1 Inoculum: 10^6 Ehrich ascites cancer cells, intraperitoneal.
# ^2 Host: Female ICR mice.
# ^3 Treatment schedule: BE13793C was intraperitoneally administered
# once a day from the 1st to the 10th day.
# ^4 MST: Mean survival time (in days).
# ^5 % T/C: (Treated MST/control MST) × 100.
# ^6 Criteria: When % T/C ≥ 125, the test compound was considere
# to produce a marked antitumor effect at the particular dose.
# P388/A cells = test: Growth inhibition of adriamycin-resistant P388/A cells; format: cell-based; details: Mus musculus, read-out: 50% inhibitory concentration (IC50) on growth of P388/A cells
# Protocol: as §1
# Furthermore, the antitumor substance BE-13793C inhibited the growth of P388/A cells, which had acquired resistance to the anticancer agent adriamycin, and the 50% inhibitory concentration (IC50) thereof was 1.0 μM.
# [1] = Acidity/neutrality/basicity; format: physicochemical
# P388/S tumor cells = test: In vitro antitumor assay, growth inhibition of P388/S tumor cells (72 h, Coulter counter); format: cell-based; details: Mus musculus, 37° C., 5% CO2, 72 hours, read-out: concentration (IC50) causing 50% inhibition on P388/S tumor cell growth
# Protocol: as §1, §2
# female ICR mice = test: Acute toxicity on female ICR mice; format: in vivo, mouse; details: 100 mg/kg i.p. once, on the 5th day
smiles,measurement,setting,value
O=C1NC(=O)c2c1c1c3cccc(O)c3[nH]c1c1[nH]c3c(O)cccc3c21 [BE-13793C],solubility in dimethyl sulfoxide,Solubility; dimethyl sulfoxide,highly soluble
same,solubility in methanol,Solubility; methanol,soluble
same,solubility in tetrahydrofuran,Solubility; tetrahydrofuran,highly soluble
same,solubility in water,Solubility; water,hardly soluble
same,IC50,P388/V cells,700 nM
same,MST (mean survival time),Ehrlich ascites cancer; 8 mg/kg/injection i.p.,16.0 days
same,MST % T/C ((treated MST/control MST) × 100),Ehrlich ascites cancer; 8 mg/kg/injection i.p.,122%
same,MST (mean survival time),Ehrlich ascites cancer; 20 mg/kg/injection i.p.,26.4 days
same,MST % T/C ((treated MST/control MST) × 100),Ehrlich ascites cancer; 20 mg/kg/injection i.p.,202%
same,MST (mean survival time),Ehrlich ascites cancer; 50 mg/kg/injection i.p.,28.6 days
same,MST % T/C ((treated MST/control MST) × 100),Ehrlich ascites cancer; 50 mg/kg/injection i.p.,218%
same,IC50,P388/A cells,1000 nM
same,Acidity/neutrality/basicity,[1],acidic
same,IC50,P388/S tumor cells,700 nM
same,death (acute toxicity),female ICR mice,no death was found
